“And” between values parts separate entries of the source, which are not always exact repeats. Equal entries are not always repeated.
Columns and labels:
11β-HSD1 [1] = molecular target: T1, 11β-HSD1 (Homo sapiens, UniProt P28845); assay: Ki values for 11β-HSD1 (stated, no method given); format: biochemical; conditions: range in words only
Target sequence in this assay (P28845 24-292): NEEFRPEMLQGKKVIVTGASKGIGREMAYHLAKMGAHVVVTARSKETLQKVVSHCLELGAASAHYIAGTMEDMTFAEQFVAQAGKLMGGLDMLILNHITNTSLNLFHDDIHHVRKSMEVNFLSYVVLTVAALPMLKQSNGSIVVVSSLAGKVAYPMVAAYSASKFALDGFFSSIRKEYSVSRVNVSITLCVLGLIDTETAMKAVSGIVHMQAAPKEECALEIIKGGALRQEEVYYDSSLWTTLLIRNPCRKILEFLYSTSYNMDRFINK

guinea pig 11β-HSD1 = molecular target: T2, guinea pig 11β-HSD1 (Cavia porcellus, UniProt Q6QLL4); assay: GuHCl-induced inactivation (conformational stability) monitored by cortisol dehydrogenation activity; format: biochemical; conditions: guinea pig enzyme, control (no addition) 0.51
T2 construct: the first 23 amino acid residues (19 for the rat variant) of the protein, which includes the distal N-terminus and the transmembrane domain, were omitted; His6 (N); made in house; host or cells: E. coli BL21(DE3), pET28a derivative, fermentor culture
Method: (§1) Stability measurements. The conformational stability was examined by monitoring GuHCl-induced solvent inactivation of 11β-HSD1. Protein solutions (5-10 μM) were incubated overnight at room temperature in various concentrations of GuHCl (0-2 M) buffered with 50 mM Tris-HCl, pH 8.0. The inactivation of the enzyme was monitored by the decrease in dehydrogenase activity (25 μM cortisol, 50 μM NADP^+) using the fluorimetric assay described above. The stability data were analyzed by nonlinear regression, fitting to the equation described by Santoro and Bolen (24) using the program GraFit, version 5.0 (Erithacus Software, Staines, UK). The midpoint concentration of inactivation, Cm, was determined from the ratio, ΔG^H2O/m, of the fitted parameters.

11β-HSD1 [2] = molecular target: T1, 11β-HSD1; assay: as above; format: biochemical; design: the first 23 amino acid residues (19 for the rat variant) of the protein, which includes the distal N-terminus and the transmembrane domain, were omitted; made in house; host or cells: E. coli BL21(DE3), pET28a derivative, co-expression of GroEL/ES; conditions: human enzyme, control (no addition) 0.25
Method: FIG. 4 is a graph depicting inactivation of recombinant human 11β-HSD1-catalyzed cortisol dehydrogenation with GuHCl. Protein concentration was approximately 5 μM in 50 mM Tris-HCl, pH 8.0. Solutions were exposed to denaturant, and protected by additives as indicated, for 16-18 h at 4° C. (∘) no additives; (□) 50 μM NADP^+; (□) BVT.24829 inhibitor and 50 μM NADP^+.
as §1
Target sequence in this assay (P28845 with tags, fused parts or gaps): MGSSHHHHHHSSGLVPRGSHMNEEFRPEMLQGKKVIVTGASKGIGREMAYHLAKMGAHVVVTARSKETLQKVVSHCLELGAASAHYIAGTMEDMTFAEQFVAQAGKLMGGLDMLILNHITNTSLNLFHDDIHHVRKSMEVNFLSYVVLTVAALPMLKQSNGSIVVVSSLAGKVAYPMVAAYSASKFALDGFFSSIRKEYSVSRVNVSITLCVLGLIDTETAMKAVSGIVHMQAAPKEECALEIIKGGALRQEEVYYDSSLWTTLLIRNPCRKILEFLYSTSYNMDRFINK

11β-HSD1 [3] = molecular target: T1, 11β-HSD1; assay: Yield of soluble recombinant 11β-HSD1 expressed in E. coli BL21(DE3), SDS-PAGE of cleared lysate; design: the first 23 amino acid residues (19 for the rat variant) of the protein, which includes the distal N-terminus and the transmembrane domain, were omitted; made in house; host or cells: E. coli BL21(DE3), pET28a derivative, co-expression of GroEL/ES; conditions: GroEL/ES co-overexpression in combination with inhibitor in growth medium; estimated by SDS-PAGE
Source text: FIGS. 1A and 1B depict expression of soluble 11β-HSD1 as analyzed by SDS-PAGE. Cleared lysates from induced cultures of BL21(DE3) containing pET28a derivatives for expression of human (FIG. 1A) and rat (FIG. 1B) 11β-HSD1. Lane 1, SeeBlue Plus2 pre-stained protein standard. lane 2, overexpression of 11β-HSD1; lane 3, co-overexpression of 11β-HSD1 and GroEL/ES; lane 4, overexpression of 11β-HSD1 in presence of the inhibitor BVT.24829; lane 5, co-overexpression of 11β-HSD1 and GroEL/ES in presence of BVT.24829.
Two different strategies were employed to optimize production of soluble 11β-HSD1. For expression of the human and rat variant, the cells were grown in shake flasks using Terrific Broth medium supplemented with 50 μg/ml kanamycin and 34 μg/ml chloramphenicol. To increase the yield of soluble human and rat 11β-HSD1, the BL21(DE3) cells were co-transformed with the plasmid pBV530, harboring the genes for the E. coli chaperonin GroEL/ES under control of the araBAD promoter. The cells were then grown at 25° C. to a cell density corresponding to an A600 value of 0.5-1.0. To induce expression of GroEL/ES, arabinose was added to a final concentration of 0.05%. 45-60 minutes after induction of the chaperonin, 0.2 mM isopropyl-β-D-thiogalactoside (IPTG) was added to initiate production of 11β-HSD1. […]
Target sequence in this assay (P28845 with tags, fused parts or gaps): as above

11β-HSD1 [4] = molecular target: T1, 11β-HSD1; assay: Active site titration, cortisol dehydrogenation by 11β-HSD1 with increasing inhibitor; format: biochemical; design: the first 23 amino acid residues (19 for the rat variant) of the protein, which includes the distal N-terminus and the transmembrane domain, were omitted; made in house; host or cells: E. coli BL21(DE3), pET28a derivative, co-expression of GroEL/ES; conditions: dehydrogenase reaction, 50 μM cortisol, 100 μM NADP+; fitted to Morrison equation; read-out: Ki^app
Method: FIG. 3 is a graph depicting active site titration of highly purified, homogenous human 11β-HSD1. Fractional velocities (vi/v0) of cortisol dehydrogenation by 11β-HSD1 were determined in presence of increasing amounts of the selective and potent inhibitor BVT.24829. […] Total protein concentration was determined by amino acid analysis (triplicate measurements) assuming a molecular mass of 31.9 kDa for the His-tagged enzyme.
Enzyme activity measurements. The dehydrogenase activity of 11β-HSD1 was assayed at 25° C. in 50 mM Tris/Cl, pH 7.4, using 50 μM cortisol and 100 μM NADP^+, with a K2 spectrofluorimeter (ISS, Champaign, Ill.). The excitation and emission wavelengths were 340 nm and 460 nm, respectively. To ensure unambiguous initial rate measurements, the enzyme addition was adjusted to give a linear fluorescence increase for at least the first 2 min of reaction. Reaction rates were calculated before and after the addition of purified 11β-HSD1 to give enzymatic rates of NADP^+ reduction. The relationship between the increase of fluorescence and the rate of NADP^+ reduction was established by generating a calibration curve using freshly prepared solutions of NADPH (0-25 μM). […] Substrate and product were monitored by UV absorbance at 240 nm and concentrations were calculated by referral to corresponding calibration curves. […]
Target sequence in this assay (P28845 with tags, fused parts or gaps): as above

T2 sequence (Q6QLL4 with tags, fused parts or gaps): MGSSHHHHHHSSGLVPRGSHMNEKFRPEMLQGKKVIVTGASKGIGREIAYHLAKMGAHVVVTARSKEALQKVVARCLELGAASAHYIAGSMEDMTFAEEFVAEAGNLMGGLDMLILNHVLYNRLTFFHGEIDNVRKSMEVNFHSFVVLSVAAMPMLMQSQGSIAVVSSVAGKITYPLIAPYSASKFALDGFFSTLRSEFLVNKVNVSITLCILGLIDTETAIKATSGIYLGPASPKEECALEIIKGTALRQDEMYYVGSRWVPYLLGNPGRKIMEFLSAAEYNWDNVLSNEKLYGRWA

Row | Ki values for 11β-HSD1 (11β-HSD1 [1]) | midpoint concentration, Cm, for GuHCl-induced inactivation (guinea pig 11β-HSD1; 25 μM inhibitor + cofactor 50 μM NADP+) | midpoint concentration, Cm, for GuHCl-induced inactivation (guinea pig 11β-HSD1; 25 μM inhibitor added) [M] | midpoint concentration, Cm, for GuHCl-induced inactivation (11β-HSD1 [2]; inhibitor + cofactor 50 μM NADP+) | midpoint concentration, Cm, for GuHCl-induced inactivation (11β-HSD1 [2]; one equivalent of inhibitor added) [M] | improvement of yield of soluble human 11β-HSD1 (11β-HSD1 [3]) | Ki (11β-HSD1 [4]) [nM] | Compound
1 | nanomolar range |  |  |  |  |  |  | Cc1c(Cl)cccc1S(=O)(=O)Nc1nc(CCN2CCOCC2=O)cs1 [BVT.3498, 3-chloro-2-methyl-N-{4-[2-(3-oxo-4-morpholinyl)ethyl]-1,3-thiazol-2-yl}benzenesulfonamide]
2 | micromolar range | 1.0 M and 0.98 M | 0.75 |  |  |  |  | CCCc1ccc(S(=O)(=O)Nc2ccsc2C(=O)N(CC)CC)cc1 [BVT.4584, N,N-diethyl-(3-{[(4-propylphenyl)sulfonyl]amino}thien-2-yl)carboxamide]
3 | nanomolar range |  |  | 0.7 M and 0.71 M | 0.51 | approximately 60 fold | 32 ± 1 | Cc1sc(NS(=O)(=O)c2cccc(Cl)c2C)nc1CCN1CCOCC1=O [BVT.24829, 3-chloro-2-methyl-N-{5-methyl-4-[2-(3-oxo-4-morpholinyl)ethyl]-1,3-thiazol-2-yl}benzenesulfonamide]

Row | Compound | Ki values for 11β-HSD1 (11β-HSD1 [1]) | midpoint concentration, Cm, for GuHCl-induced inactivation (guinea pig 11β-HSD1; 25 μM inhibitor + cofactor 50 μM NADP+) | midpoint concentration, Cm, for GuHCl-induced inactivation (guinea pig 11β-HSD1; 25 μM inhibitor added) [M] | midpoint concentration, Cm, for GuHCl-induced inactivation (11β-HSD1 [2]; inhibitor + cofactor 50 μM NADP+) | midpoint concentration, Cm, for GuHCl-induced inactivation (11β-HSD1 [2]; one equivalent of inhibitor added) [M] | improvement of yield of soluble human 11β-HSD1 (11β-HSD1 [3]) | Ki (11β-HSD1 [4]) [nM]
4 | Cc1c(Cl)cccc1S(=O)(=O)Nc1nc(CC(=O)N2CCN(C)CC2)cs1 [BVT.2733, 3-Chloro-2-methyl-N-{4-[2-(4-methyl-1-piperazinyl)-2-oxoethyl]-1,3-thiazol-2-yl}benzenesulfonamide] | micromolar range |  |  |  |  |  | 

— patent publication US20050186659A1, “Methods for protein purification” (priority 2004, published 2005)
